pIC50: −log10 of the molar value. Read-outs that look alike come from different tables or passages of the source.
Assays:
[1] = target: T1, PI3Kalpha (PI3Ka) (Homo sapiens, UniProt P42336); assay: kinobeads assay, PI3Kalpha; format: binding
T1 construct: endogenous in cells; host or cells: cell lysate
Procedure: (§1) The kinobeads assay was performed as a competitive binding assay in which test compounds were added directly into a cell lysate. Test compounds (at various concentrations) and the affinity matrix (beads with immobilized phenylmorpholin-chromen ligand) were added to cell lysate aliquots and allowed to bind to the proteins contained in the lysate sample. After the incubation time the beads with captured proteins were separated from the lysate. Bound proteins were then eluted and the presence of kinases was detected and quantified using a multiplexed immunodetection format. Dose response curves for individual kinases were generated and IC50 values calculated.
(§2) The effect of the compounds on the kinases PI3Kalpha (PI3Ka), PI3 Kbeta (PI3 Kb) and PI3 Kgamma (PI3 Kg) were tested in the kinobeads assay as described (WO-A 2009/098021).

[2] = target: T2, DNA-dependent protein kinase (DNA-PK) (Homo sapiens, UniProt P78527); assay: kinobeads assay, DNA-PK; format: binding
T2 construct: endogenous in cells; host or cells: Jurkat, clone E6-1 (ATCC TIB-152) cell lysate
T2 sequence (P78527 whole entry): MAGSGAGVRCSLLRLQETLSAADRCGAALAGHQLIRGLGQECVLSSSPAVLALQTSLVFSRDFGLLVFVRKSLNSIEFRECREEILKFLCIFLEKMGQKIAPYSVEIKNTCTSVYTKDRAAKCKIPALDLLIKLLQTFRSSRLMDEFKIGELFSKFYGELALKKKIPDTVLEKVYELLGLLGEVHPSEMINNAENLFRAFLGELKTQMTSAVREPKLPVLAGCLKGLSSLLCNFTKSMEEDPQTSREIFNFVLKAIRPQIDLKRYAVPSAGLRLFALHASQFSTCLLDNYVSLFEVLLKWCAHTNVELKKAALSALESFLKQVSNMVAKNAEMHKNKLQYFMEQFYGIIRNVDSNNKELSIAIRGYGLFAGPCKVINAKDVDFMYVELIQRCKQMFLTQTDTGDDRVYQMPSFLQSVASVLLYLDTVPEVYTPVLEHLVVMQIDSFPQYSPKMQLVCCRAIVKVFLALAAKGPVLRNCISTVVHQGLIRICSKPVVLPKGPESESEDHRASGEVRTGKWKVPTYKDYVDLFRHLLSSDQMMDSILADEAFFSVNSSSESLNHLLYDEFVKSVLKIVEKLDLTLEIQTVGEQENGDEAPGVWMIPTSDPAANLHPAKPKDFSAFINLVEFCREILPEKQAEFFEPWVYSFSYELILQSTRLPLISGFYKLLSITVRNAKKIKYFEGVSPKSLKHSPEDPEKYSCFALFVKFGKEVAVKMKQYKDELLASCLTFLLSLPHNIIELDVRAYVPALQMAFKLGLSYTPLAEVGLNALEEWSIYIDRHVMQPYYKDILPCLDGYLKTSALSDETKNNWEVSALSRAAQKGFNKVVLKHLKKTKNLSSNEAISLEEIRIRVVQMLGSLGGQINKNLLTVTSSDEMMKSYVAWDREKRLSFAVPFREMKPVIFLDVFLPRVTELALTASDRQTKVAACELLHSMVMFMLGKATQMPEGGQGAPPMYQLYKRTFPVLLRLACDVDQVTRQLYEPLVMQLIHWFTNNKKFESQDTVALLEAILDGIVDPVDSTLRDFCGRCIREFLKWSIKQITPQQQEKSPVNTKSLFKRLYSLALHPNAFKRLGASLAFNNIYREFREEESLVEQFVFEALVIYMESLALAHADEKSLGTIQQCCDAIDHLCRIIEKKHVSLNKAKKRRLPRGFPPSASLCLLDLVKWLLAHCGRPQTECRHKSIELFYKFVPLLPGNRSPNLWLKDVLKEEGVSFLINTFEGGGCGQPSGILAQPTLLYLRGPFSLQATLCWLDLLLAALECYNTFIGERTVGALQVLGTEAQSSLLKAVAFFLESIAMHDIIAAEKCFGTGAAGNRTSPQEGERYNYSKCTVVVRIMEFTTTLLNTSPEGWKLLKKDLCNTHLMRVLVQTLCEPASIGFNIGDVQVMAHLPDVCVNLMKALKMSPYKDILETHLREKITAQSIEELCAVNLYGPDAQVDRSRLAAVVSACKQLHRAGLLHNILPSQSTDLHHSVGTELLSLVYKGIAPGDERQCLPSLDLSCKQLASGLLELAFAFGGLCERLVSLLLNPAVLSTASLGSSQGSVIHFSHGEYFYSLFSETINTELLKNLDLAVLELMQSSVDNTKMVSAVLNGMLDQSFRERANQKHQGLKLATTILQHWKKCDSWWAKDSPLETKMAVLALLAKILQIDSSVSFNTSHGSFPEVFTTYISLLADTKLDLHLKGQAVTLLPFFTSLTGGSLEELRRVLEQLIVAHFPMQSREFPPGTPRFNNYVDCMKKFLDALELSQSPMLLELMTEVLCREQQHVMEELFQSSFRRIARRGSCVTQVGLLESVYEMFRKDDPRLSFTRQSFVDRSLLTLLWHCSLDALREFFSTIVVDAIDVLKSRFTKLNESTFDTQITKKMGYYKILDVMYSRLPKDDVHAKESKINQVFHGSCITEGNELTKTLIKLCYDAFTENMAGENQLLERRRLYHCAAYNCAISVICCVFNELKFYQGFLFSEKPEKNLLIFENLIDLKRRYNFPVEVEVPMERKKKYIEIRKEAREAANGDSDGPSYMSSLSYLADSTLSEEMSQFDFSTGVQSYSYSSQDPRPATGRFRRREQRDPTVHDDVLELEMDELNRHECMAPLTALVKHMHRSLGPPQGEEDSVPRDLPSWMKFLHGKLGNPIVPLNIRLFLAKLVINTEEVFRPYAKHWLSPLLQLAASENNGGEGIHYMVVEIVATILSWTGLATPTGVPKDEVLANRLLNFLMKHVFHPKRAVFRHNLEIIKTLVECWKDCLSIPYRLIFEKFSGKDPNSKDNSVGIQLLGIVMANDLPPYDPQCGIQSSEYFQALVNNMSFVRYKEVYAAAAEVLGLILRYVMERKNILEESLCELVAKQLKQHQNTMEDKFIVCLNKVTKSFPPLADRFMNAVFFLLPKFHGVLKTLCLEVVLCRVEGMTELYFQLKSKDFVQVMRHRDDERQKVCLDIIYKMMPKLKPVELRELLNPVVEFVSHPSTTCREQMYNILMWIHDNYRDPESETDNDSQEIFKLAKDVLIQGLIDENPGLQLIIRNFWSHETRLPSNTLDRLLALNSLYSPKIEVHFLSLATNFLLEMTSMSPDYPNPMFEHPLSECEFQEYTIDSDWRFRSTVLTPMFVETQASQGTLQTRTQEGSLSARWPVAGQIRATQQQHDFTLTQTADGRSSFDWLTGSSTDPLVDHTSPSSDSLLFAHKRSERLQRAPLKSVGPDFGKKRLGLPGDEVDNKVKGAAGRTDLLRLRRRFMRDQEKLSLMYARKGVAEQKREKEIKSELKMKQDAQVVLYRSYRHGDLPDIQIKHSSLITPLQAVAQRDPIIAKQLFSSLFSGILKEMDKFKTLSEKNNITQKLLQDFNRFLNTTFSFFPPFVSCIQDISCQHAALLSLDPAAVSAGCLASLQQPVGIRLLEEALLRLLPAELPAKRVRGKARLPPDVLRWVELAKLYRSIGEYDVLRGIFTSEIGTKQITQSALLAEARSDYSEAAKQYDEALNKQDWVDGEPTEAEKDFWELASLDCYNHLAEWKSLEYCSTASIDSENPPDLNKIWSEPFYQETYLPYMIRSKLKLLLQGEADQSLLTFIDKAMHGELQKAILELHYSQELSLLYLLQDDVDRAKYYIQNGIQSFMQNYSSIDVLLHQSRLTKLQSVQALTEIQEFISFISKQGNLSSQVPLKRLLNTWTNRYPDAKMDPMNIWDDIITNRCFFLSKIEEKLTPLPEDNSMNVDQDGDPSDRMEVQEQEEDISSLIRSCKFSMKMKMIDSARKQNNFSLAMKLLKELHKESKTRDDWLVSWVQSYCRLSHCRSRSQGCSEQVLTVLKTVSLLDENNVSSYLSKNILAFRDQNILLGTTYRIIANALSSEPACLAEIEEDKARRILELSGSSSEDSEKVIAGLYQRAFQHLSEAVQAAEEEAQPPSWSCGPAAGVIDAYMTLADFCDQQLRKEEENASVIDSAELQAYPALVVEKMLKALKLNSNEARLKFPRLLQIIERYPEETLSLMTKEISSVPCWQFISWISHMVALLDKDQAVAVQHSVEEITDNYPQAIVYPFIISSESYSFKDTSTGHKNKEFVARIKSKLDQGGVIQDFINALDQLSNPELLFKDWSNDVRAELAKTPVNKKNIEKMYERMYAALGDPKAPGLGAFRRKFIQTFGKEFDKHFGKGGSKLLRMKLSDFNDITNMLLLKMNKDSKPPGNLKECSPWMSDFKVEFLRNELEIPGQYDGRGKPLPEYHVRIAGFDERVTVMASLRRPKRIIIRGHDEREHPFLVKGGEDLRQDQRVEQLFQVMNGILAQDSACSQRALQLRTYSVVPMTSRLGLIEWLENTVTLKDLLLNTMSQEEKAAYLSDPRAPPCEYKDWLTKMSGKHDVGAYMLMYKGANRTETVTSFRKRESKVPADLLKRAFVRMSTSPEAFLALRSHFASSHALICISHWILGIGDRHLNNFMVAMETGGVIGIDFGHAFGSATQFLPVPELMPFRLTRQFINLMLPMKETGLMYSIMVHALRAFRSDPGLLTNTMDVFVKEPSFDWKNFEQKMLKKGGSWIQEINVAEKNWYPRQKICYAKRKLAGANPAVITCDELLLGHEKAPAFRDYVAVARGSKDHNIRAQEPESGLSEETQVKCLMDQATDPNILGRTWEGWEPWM
Procedure: (§3) The compounds of the present invention as described were tested in the mTOR kinobeads assay as described below. Briefly, test compounds (at various concentrations) and the affinity matrix with the immobilized phenylmorpholin-chromen ligand (8-(4-aminomethyl-phenyl)-2-morpholin-4-yl-chromen-4-one) were added to cell lysate aliquots and allowed to bind to the proteins in the lysate sample. After the incubation time the beads with captured proteins were separated from the lysate. Bound proteins were then eluted and the presence of mTOR, PI3K delta (PI3 Kd) and DNA-dependent protein kinase (DNA-PK) was detected and quantified using a specific antibody in a dot blot procedure and the Odyssey infrared detection system. Kinobeads assays for PI3K (WO-A 2008/015013) and for kinase selectivity profiling (WO 2006/134056) have been previously described.
as §1
(§4) The affinity matrix (beads with immobilized phenylmorpholin-chromen ligand) was washed two times with 15 ml of 1×DP buffer containing 0.2% NP40 (IGEPAL® CA-630, Sigma, #13021) and then resupended in 5.5 ml of 1×DP buffer containing 0.2% NP40 (10% beads slurry).
(§5) 5×DP buffer: 250 mM Tris-HCl pH 7.4, 25% Glycerol, 7.5 mM MgCl2, 750 mM NaCl, 5 mM Na3VO4, filter the 5×-lysis buffer through 0.22 μm filter and store in aliquots at −80° C. The 5×DP buffer is diluted to 1×DP buffer containing 1 mM DTT and 25 mM NaF.
(§6) Stock solutions of test compounds were prepared in DMSO. In a 96 well plate 30 μl solution of diluted test compounds at 5 mM in DMSO were prepared. Starting with this solution a 1:3 dilution series (9 steps) was prepared. For control experiments (no test compound) a buffer containing 2% DMSO was used. Compound CZC00018052 served as a positive control (PI-103; Calbiochem catalogue number 528100).
(§7) Jurkat cells (ATCC catalogue number TIB-152 Jurkat, clone E6-1) were grown in 1 liter Spinner flasks (Integra Biosciences, #182101) in suspension in RPMI 1640 medium (Invitrogen, #21875-034) supplemented with 10% Fetal Bovine Serum (Invitrogen) at a density between 0.15×10^6 and 1.2×10^6 cells/ml. Cells were harvested by centrifugation, washed once with 1×PBS buffer (Invitrogen, #14190-094) and cell pellets were frozen in liquid nitrogen and subsequently stored at −80° C.
(§8) Jurkat cells were homogenized in a Potter S homogenizer in lysis buffer: 50 mM Tris-HCl, 0.8% NP40, 5% glycerol, 150 mM NaCl, 1.5 mM MgCl2, 25 mM NaF, 1 mM sodium vanadate, 1 mM DTT, pH 7.5. One complete EDTA-free tablet (protease inhibitor cocktail, Roche Diagnostics, 1873580) per 25 ml buffer was added. The material was dounced 10 times using a mechanized POTTER S, transferred to 50 ml falcon tubes, incubated for 30 minutes on ice and spun down for 10 min at 20,000 g at 4° C. (10,000 rpm in Sorvall SLA600, precooled). The supernatant was transferred to an ultracentrifuge (UZ)-polycarbonate tube (Beckmann, 355654) and spun for 1 hour at 100.000 g at 4° C. (33.500 rpm in Ti50.2, precooled). The supernatant was transferred again to a fresh 50 ml falcon tube, the protein concentration was determined by a Bradford assay (BioRad) and samples containing 50 mg of protein per aliquot were prepared. The samples were immediately used for experiments or frozen in liquid nitrogen and stored frozen at −80° C. […]

[3] = target: T3, PI3K delta (PI3 Kd) (Homo sapiens, UniProt O00329); assay: kinobeads assay, PI3K delta; format: binding
T3 construct: endogenous in cells; host or cells: Jurkat, clone E6-1 (ATCC TIB-152) cell lysate
Procedure: as §3, §1, §4, §5, §6, §7, §8

[4] = target: T4, PI3 Kbeta (PI3 Kb) (Homo sapiens, UniProt P42338); assay: kinobeads assay, PI3Kbeta; format: binding
T4 construct: endogenous in cells; host or cells: cell lysate
Procedure: as §1, §2

[5] = target: T5, mTOR (Homo sapiens, UniProt P42345); assay: mTOR kinobeads assay (competitive binding in Jurkat cell lysate, immunodetection)
T5 construct: endogenous in cells; host or cells: Jurkat, clone E6-1 (ATCC TIB-152) cell lysate
Procedure: The compounds of the present invention as described were tested in the mTOR kinobeads assay as described below. […] After the incubation time the beads with captured proteins were separated from the lysate. Bound proteins were then eluted and the presence of mTOR, PI3K delta (PI3 Kd) and DNA-dependent protein kinase (DNA-PK) was detected and quantified using a specific antibody in a dot blot procedure and the Odyssey infrared detection system.
as §1, §5
as §6, with “used.” for “used. Compound CZC00018052 served as a positive control (PI-103; Calbiochem catalogue number 528100).”
Jurkat cells were homogenized in a Potter S homogenizer in lysis buffer: 50 mM Tris-HCl, 0.8% NP40, 5% glycerol, 150 mM NaCl, 1.5 mM MgCl2, 25 mM NaF, 1 mM sodium vanadate, 1 mM DTT, pH 7.5. […] The material was dounced 10 times using a mechanized POTTER S, transferred to 50 ml falcon tubes, incubated for 30 minutes on ice and spun down for 10 min at 20,000 g at 4° C. (10,000 rpm in Sorvall SLA600, precooled). […] (33.500 rpm in Ti50.2, precooled). The supernatant was transferred again to a fresh 50 ml falcon tube, the protein concentration was determined by a Bradford assay (BioRad) and samples containing 50 mg of protein per aliquot were prepared. The samples were immediately used for experiments or frozen in liquid nitrogen and stored frozen at −80° C.
Jurkat cell lysate (approximately 50 mg protein per plate) was thawed in a water bath at room temperature and then kept on ice. […] The diluted cell lysate was stored on ice.
Plates were sealed and incubated for two hours in a cold room on a Thermoxer with shaking (750 rpm). Afterwards the plate was washed twice with 230 μl washing buffer (1×DP 0.4% NP40). […] The eluate was frozen quickly at −80° C. and stored at −20° C.
The kinases in the eluates were detected and quantified by spotting on Nitrocellulose membranes and using a first antibody directed against the kinase of interest and a fluorescently labeled secondary antibody (anti-mouse or anti-rabbit IRDye™ antibodies from Rockland).
Afterwards the membrane was washed three times for 10 minutes with PBS buffer containing 0.1% Tween 20 at room temperature. […] Afterwards the membrane was washed three times for 10 minutes each with 1×PBS buffer containing 0.1% Tween 20 at room temperature. Then the membrane was rinsed once with PBS buffer to remove residual Tween 20. The membrane was kept in PBS buffer at 4° C. and then scanned with the Odyssey instrument. Fluorescence signals were recorded and analysed according to the instructions of the manufacturer.

[6] = target: T6, PI3 Kgamma (PI3 Kg) (Homo sapiens, UniProt P48736); assay: kinobeads assay, PI3Kgamma; format: binding
T6 construct: endogenous in cells; host or cells: cell lysate
Procedure: as §1, §2

[7] = kinobeads assay, Table 6, read-out: Inhibition values (IC50) DNAPK
[8] = kinobeads assay, Table 6, read-out: Inhibition values (IC50) PI3Kd
[9] = kinobeads assay, Table 6, read-out: Inhibition values (IC50) mTOR
[10] = kinobeads assay, Table 6, read-out: Inhibition values (IC50) PI3Kg

SMILES | Inhibition values (IC50) PI3Ka ([1]; kinobeads assay, Table 6) | pIC50 [2, 7] | pIC50 [3, 8] | pIC50 [5, 9] | pIC50 [6, 10] | further results
CCNC(=O)Nc1ccc(-c2nc3c(c(N4CCOC[C@@H]4C)n2)CN(C2CCN(C(C)=O)CC2)C3)cc1F [Example 117, (S)-1-(4-(6-(1-acetylpiperidin-4-yl)-4-(3-methylmorpholino)-6,7-dihydro-5H-pyrrolo[3,4-d]pyrimidin-2-yl)-2-fluorophenyl)-3-ethylurea] | D (D >10 μM) | < 5.00 | < 5.00 | 6.00 to 7.00 | < 5.00 | pIC50 ([4]; kinobeads assay, Table 6, read-out: Inhibition values (IC50) PI3Kb): < 5.00
CCNC(=O)Nc1ccc(-c2nc3c(c(N4CCOCC4)n2)CN(C(=O)OC(C)(C)C)C3)c(F)c1 [Example 145, tert-butyl 2-(4-(3-ethylureido)-2-fluorophenyl)-4-morpholino-5H-pyrrolo[3,4-d]pyrimidine-6(7H)-carboxylate] |  |  |  |  |  | PI3Ka ([1]; Further Kinobeads Data): D (D >10 μM); pIC50 ([2]; Further Kinobeads Data, read-out: DNAPK): < 5.00; pIC50 ([3]; Further Kinobeads Data, read-out: PI3Kd): < 5.00; pIC50 ([4]; Further Kinobeads Data, read-out: PI3Kb): < 5.00; pIC50 ([5]; Further Kinobeads Data, read-out: mTor): 6.00 to 7.00; pIC50 ([6]; Further Kinobeads Data, read-out: PI3Kg): < 5.00
C[C@H]1COCCN1c1nc(-c2ccc(NC(=O)NC3CC3)cc2)nc2c1CN(C(=O)CCC(N)=O)C2 [Example 127, (S)-4-(2-(4-(3-cyclopropylureido)phenyl)-4-(3-methylmorpholino)-5H-pyrrolo[3,4-d]pyrimidin-6(7H)-yl)-4-oxobutanamide] |  |  | < 5.00 | > 7.00 | < 5.00 | pIC50 ([1]; kinobeads assay, Table 6, read-out: Inhibition values (IC50) PI3Ka): 5.00 to 6.00
C[C@H]1COCCN1c1nc(-c2ccc(NC(=O)NCCN(C)C)cc2)nc2c1CN(C)C2 [Example 54, (S)-1-(2-(dimethylamino)ethyl)-3-(4-(6-methyl-4-(3-methylmorpholino)-6,7-dihydro-5H-pyrrolo[3,4-d]pyrimidin-2-yl)phenyl)urea] |  | < 5.00 |  | 6.00 to 7.00 | 5.00 to 6.00 | pIC50 ([2]; kinobeads assay, Table 4, read-out: Inhibition values (IC50) DNA-PK): < 5.00; pIC50 ([5]; kinobeads assay, Table 4, read-out: Inhibition values (IC50) mTor): 6.00 to 7.00
C[C@H]1COCCN1c1nc(-c2ccc(NC(=O)NC3CC3)cc2)nc2c1CN(CC1CCN(C(=O)OC(C)(C)C)CC1)C2 [Example 128, (S)-tert-butyl 4-((2-(4-(3-cyclopropylureido)phenyl)-4-(3-methylmorpholino)-5H-pyrrolo[3,4-d]pyrimidin-6(7H)-yl)methyl)piperidine-1-carboxylate] | D (D >10 μM) |  | < 5.00 | 6.00 to 7.00 | < 5.00 | 
